Results: PubChem BioAssay AID200 (DTP/NCI, 2004)
Several values for one entry are separate records, joined by “and”; a condition that tells them apart may be missing. Identical values can stand only once. Toxic doses and inconclusive results are not listed. How the source made its calls: active means survival T/C of 150% or more; inactive means T/C below 125% in these data.

Tested on: B6C3F1 mice, B16 melanoma ip, median survival T/C
Test: NCI In Vivo Anticancer Drug Screen. Data for tumor model B16 Melanoma (intraperitoneal) in B6C3F1 mice
Details: endpoint: median survival time, higher = longer survival
In short: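 Transplantable tumor in mice; treated vs vehicle control groups; survival or tumor size measured; value = T/C ratio.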

[1] = dose: 12.5 mg/kg/injection, schedule: Q01DX009 (ip), vehicle: saline
[2] = dose: 25.0 mg/kg/injection, schedule: Q01DX009 (ip), vehicle: saline
[3] = dose: 50.0 mg/kg/injection, schedule: Q01DX009 (ip), vehicle: saline
[4] = dose: 100.0 mg/kg/injection, schedule: Q01DX009 (ip), vehicle: saline
[5] = dose: 200.0 mg/kg/injection, schedule: Q01DX009 (ip), vehicle: saline
[6] = dose: 12.5 mg/kg/injection, schedule: Q01DX009 (ip), vehicle: saline with Tween-80
[7] = dose: 6.25 mg/kg/injection, schedule: Q01DX009 (ip), vehicle: saline with Tween-80
[8] = dose: 25.0 mg/kg/injection, schedule: Q01DX009 (ip), vehicle: saline with Tween-80
[9] = dose: 25.0 mg/kg/injection, schedule: Q01DX009 (ip), vehicle: Klucel (hydroxypropylcellulose) (HPC)
[10] = dose: 50.0 mg/kg/injection, schedule: Q01DX009 (ip), vehicle: Klucel (hydroxypropylcellulose) (HPC)
[11] = dose: 7.5 mg/kg/injection, schedule: Q01DX009 (ip), vehicle: Klucel (hydroxypropylcellulose) (HPC)
[12] = dose: 15.0 mg/kg/injection, schedule: Q01DX009 (ip), vehicle: Klucel (hydroxypropylcellulose) (HPC)
[13] = dose: 50.0 mg/kg/injection, schedule: Q01DX009 (ip), vehicle: saline with Tween-80
[14] = dose: 100.0 mg/kg/injection, schedule: Q01DX009 (ip), vehicle: saline with Tween-80
[15] = dose: 100.0 mg/kg/injection, schedule: Q01DX009 (ip), vehicle: Klucel (hydroxypropylcellulose) (HPC)
[16] = dose: 200.0 mg/kg/injection, schedule: Q01DX009 (ip), vehicle: Klucel (hydroxypropylcellulose) (HPC)

Measured: T/C

Cc1nc(N)nc(N)c1-c1ccc(Cl)c(Cl)c1
inactive: dose: 0.31 mg/kg/injection, schedule: Q01DX009 (ip), vehicle: saline with Tween-80 102 % of control | dose: 0.62 mg/kg/injection, schedule: Q01DX009 (ip), vehicle: saline 116 % of control | dose: 0.63 mg/kg/injection, schedule: Q01DX009 (ip), vehicle: saline with Tween-80 104 % of control | dose: 1.25 mg/kg/injection, schedule: Q01DX009 (ip), vehicle: saline with Tween-80 102 % of control | dose: 1.25 mg/kg/injection, schedule: Q01DX009 (ip), vehicle: saline 101 % of control and 102 % of control | dose: 2.5 mg/kg/injection, schedule: Q01DX009 (ip), vehicle: saline with Tween-80 113 % of control | dose: 2.5 mg/kg/injection, schedule: Q01DX009 (ip), vehicle: saline 116 % of control

C=CCOCC1CO1 (configuration not stated)
inactive: [1] 98 % of control and 99 % of control | [2] 111 % of control and 101 % of control | [3] 92 % of control and 103 % of control | [4] 111 % of control and 104 % of control | [5] 111 % of control and 99 % of control

CN(C)c1nc(N(C)C)nc(N(C)C)n1
inactive: [6] 88 % of control

CCOC(=O)C1=C(C#N)C2(CCC(OCc3ccccc3)CC2)C(=O)O1 (configuration not stated)
inactive: [1] 105 % of control | dose: 12.5 mg/kg/injection, schedule: Q01DX009 (ip), vehicle: suspension in saline 105 % of control | [2] 101 % of control | dose: 25.0 mg/kg/injection, schedule: Q01DX009 (ip), vehicle: suspension in saline 96 % of control | [3] 94 % of control | dose: 50.0 mg/kg/injection, schedule: Q01DX009 (ip), vehicle: suspension in saline 107 % of control | [4] 111 % of control | dose: 100.0 mg/kg/injection, schedule: Q01DX009 (ip), vehicle: suspension in saline 109 % of control | dose: 200.0 mg/kg/injection, schedule: Q01DX009 (ip), vehicle: suspension in saline 107 % of control

CCCCCCCCCCCCCC#CC(=O)O
inactive: dose: 3.12 mg/kg/injection, schedule: Q01DX009 (ip), vehicle: saline with Tween-80 110 % of control and 94 % of control | [7] 112 % of control and 94 % of control | [6] 92 % of control and 105 % of control | [8] 89 % of control

CCCCCCCCCCCCNCCCc1ccccc1
inactive: [6] 94 % of control | [8] 93 % of control

[N-]=[N+]=CC(=O)CCC(NC(=O)OCc1ccccc1)C(=O)OCc1ccccc1 (configuration not stated)
inactive: [9] 93 % of control | [10] 96 % of control

NC(=O)c1ccc(N)nc1
inactive: dose: 0.5 mg/kg/injection, schedule: Q01DX009 (ip), vehicle: saline 113 % of control | dose: 1.0 mg/kg/injection, schedule: Q01DX009 (ip), vehicle: saline 119 % of control | dose: 2.0 mg/kg/injection, schedule: Q01DX009 (ip), vehicle: saline 117 % of control

COc1cccc2c1C(=O)c1c(O)c3c(c(O)c1C2=O)C[C@@](O)(C(=O)CO)C[C@@H]3OC1CC(NC(=O)C(N)CC(C)C)C(O)C(C)O1 (some centres not stated)
active: dose: 6.25 mg/kg/injection, schedule: Q01DX001 (ip), vehicle: saline 192 % of control | dose: 12.5 mg/kg/injection, schedule: Q01DX001 (ip), vehicle: saline 192 % of control | dose: 25.0 mg/kg/injection, schedule: Q01DX001 (ip), vehicle: saline 269 % of control | dose: 50.0 mg/kg/injection, schedule: Q01DX001 (ip), vehicle: saline 183 % of control

O=C(O)C(O)C(O)C1[O][Sb][O]C1C(=O)O (configuration not stated)
inactive: dose: 6.25 mg/kg/injection, schedule: Q01DX009 (ip), vehicle: saline 96 % of control | [1] 97 % of control | [2] 104 % of control | [3] 107 % of control

Cc1nnc2ncccn12
inactive: [1] 97 % of control and 106 % of control | [2] 96 % of control and 103 % of control | [3] 98 % of control and 100 % of control | [4] 97 % of control and 103 % of control | [5] 94 % of control and 97 % of control | dose: 400.0 mg/kg/injection, schedule: Q01DX009 (ip), vehicle: saline 90 % of control and 102 % of control

NC(=O)C1=CC2C3C=CC2(O)C(=O)OC3O1 (configuration not stated)
inactive: dose: 3.75 mg/kg/injection, schedule: Q01DX009 (ip), vehicle: Klucel (hydroxypropylcellulose) (HPC) 108 % of control and 123 % of control | [11] 118 % of control and 107 % of control | [12] 114 % of control and 123 % of control

CCOC(=O)c1c(C)c(C(=O)OCC)n(CC)c1C=O
inactive: [13] 86 % of control | [14] 89 % of control | dose: 200.0 mg/kg/injection, schedule: Q01DX009 (ip), vehicle: saline with Tween-80 93 % of control

NC(CCCNc1ccc(O)cc1)C(=O)O (configuration not stated)
inactive: dose: 75.0 mg/kg/injection, schedule: Q01DX009 (ip), vehicle: saline 122 % of control | [4] 98 % of control | dose: 150.0 mg/kg/injection, schedule: Q01DX009 (ip), vehicle: saline 106 % of control

C/C=C(\C)c1cc(=O)c2c(C)cc3c(c2o1)C(=O)c1c(O)c(C2CC(C)(N(C)C)C(OC(C)=O)C(C)O2)cc(C2CC(N(C)C)C(O)C(C)O2)c1C3=O (configuration not stated)
inactive: dose: 0.15 mg/kg/injection, schedule: Q01DX009 (ip), vehicle: saline 110 % of control | dose: 0.15 mg/kg/injection, schedule: Q01DX009 (ip), vehicle: suspension in saline 102 % of control | dose: 0.31 mg/kg/injection, schedule: Q01DX009 (ip), vehicle: suspension in saline 114 % of control | dose: 0.62 mg/kg/injection, schedule: Q01DX009 (ip), vehicle: suspension in saline 109 % of control

COc1cc([C@@H]2c3cc4c(cc3[C@H](OC3OC5COC(c6ccccc6)OC5C(O)C3O)[C@H]3COC(=O)[C@H]23)OCO4)cc(OC)c1OC (some centres not stated)
active: [8] 154 % of control | [13] 169 % of control and 177 % of control
inactive: [7] 123 % of control

CC(C)(C)OC(=O)NC(CSCc1ccccc1)C(=O)ON1C(=O)CCC1=O (configuration not stated)
inactive: [15] 94 % of control | [16] 100 % of control

OC1CCCC2CCC[N-]C12.OC1CCCC2CCC[N-]C12.[Mn+2] (configuration not stated)
inactive: [9] 109 % of control | [10] 102 % of control

CC(=O)/C(=C\c1ccc(Cl)c(Cl)c1)C(=O)CCN(C)C
inactive: [1] 94 % of control | [2] 93 % of control | [3] 89 % of control

CC(C)OC(=O)c1ccc(C(C)C)cc1
inactive: dose: 3.13 mg/kg/injection, schedule: Q01DX009 (ip), vehicle: saline with Tween-80 94 % of control | [7] 96 % of control | [6] 96 % of control and 101 % of control | [13] 90 % of control

CC12CC3OC(=O)C1COC14OC5(C2C1=O)C(O)(CCC1C4CC2OC24CC=CC(=O)C14C)C(=O)OC35C (configuration not stated)
inactive: [11] 88 % of control | [12] 93 % of control | dose: 30.0 mg/kg/injection, schedule: Q01DX009 (ip), vehicle: Klucel (hydroxypropylcellulose) (HPC) 99 % of control

O=C1CC2(C(=O)N1CN1CCCCC1)c1ccccc1-c1ccccc12
inactive: dose: 12.5 mg/kg/injection, schedule: Q01DX009 (ip), vehicle: Klucel (hydroxypropylcellulose) (HPC) 91 % of control | [9] 95 % of control | [10] 95 % of control | [15] 110 % of control | [16] 92 % of control

O=C1NCC(Br)C(=O)N1 (configuration not stated)
inactive: dose: 6.25 mg/kg/injection, schedule: Q01DX009 (ip), vehicle: saline + Tween-80 + alcohol 90 % of control | dose: 12.5 mg/kg/injection, schedule: Q01DX009 (ip), vehicle: saline + Tween-80 + alcohol 99 % of control and 101 % of control | [6] 102 % of control | dose: 25.0 mg/kg/injection, schedule: Q01DX009 (ip), vehicle: saline + Tween-80 + alcohol 100 % of control and 106 % of control | [8] 94 % of control and 105 % of control | dose: 50.0 mg/kg/injection, schedule: Q01DX009 (ip), vehicle: saline + Tween-80 + alcohol 114 % of control and 105 % of control | [13] 114 % of control | dose: 100.0 mg/kg/injection, schedule: Q01DX009 (ip), vehicle: saline + Tween-80 + alcohol 109 % of control and 100 % of control | [14] 116 % of control | dose: 200.0 mg/kg/injection, schedule: Q01DX009 (ip), vehicle: saline + Tween-80 + alcohol 96 % of control

CCOc1cc2c(cc1C(C)c1ccc(OC)cc1)OCO2 (configuration not stated)
inactive: dose: 12.5 mg/kg/injection, schedule: Q01DX009 (ip), vehicle: distilled water + alcohol 116 % of control | dose: 25.0 mg/kg/injection, schedule: Q01DX009 (ip), vehicle: distilled water + alcohol 113 % of control | dose: 50.0 mg/kg/injection, schedule: Q01DX009 (ip), vehicle: distilled water + alcohol 102 % of control | dose: 100.0 mg/kg/injection, schedule: Q01DX009 (ip), vehicle: distilled water + alcohol 98 % of control | dose: 200.0 mg/kg/injection, schedule: Q01DX009 (ip), vehicle: distilled water + alcohol 108 % of control
